Assay results as given in patent publication US10052306B2 (LUC THERAPEUTICS, INC., priority 2013, dated 2018).

Target: NR1/NR2B (Homo sapiens (Human), UniProt Q05586+Q13224)
Test: Cell assay: FDSS Ca2+ influx inhibition in HEK293 cells expressing NR1/NR2B;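 also: Fluo-8 Ca2+ signal read on Hamamatsu FDSS 6000 after glutamate, glycine and Ca2+ challenge following 10 min compound preincubation, end/baseline fluorescence ratio compared with MK801 control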
Details: Ca2+ influx
[1] = Binned Activity, HEK293 cells expressing NR1/NR2B, binned NR2B NAM IC50
[2] = NR2B NAM IC50, HEK293 cells expressing NR1/NR2B

Sequence of NR1/NR2B (Q13224 27-1484, other chains not shown): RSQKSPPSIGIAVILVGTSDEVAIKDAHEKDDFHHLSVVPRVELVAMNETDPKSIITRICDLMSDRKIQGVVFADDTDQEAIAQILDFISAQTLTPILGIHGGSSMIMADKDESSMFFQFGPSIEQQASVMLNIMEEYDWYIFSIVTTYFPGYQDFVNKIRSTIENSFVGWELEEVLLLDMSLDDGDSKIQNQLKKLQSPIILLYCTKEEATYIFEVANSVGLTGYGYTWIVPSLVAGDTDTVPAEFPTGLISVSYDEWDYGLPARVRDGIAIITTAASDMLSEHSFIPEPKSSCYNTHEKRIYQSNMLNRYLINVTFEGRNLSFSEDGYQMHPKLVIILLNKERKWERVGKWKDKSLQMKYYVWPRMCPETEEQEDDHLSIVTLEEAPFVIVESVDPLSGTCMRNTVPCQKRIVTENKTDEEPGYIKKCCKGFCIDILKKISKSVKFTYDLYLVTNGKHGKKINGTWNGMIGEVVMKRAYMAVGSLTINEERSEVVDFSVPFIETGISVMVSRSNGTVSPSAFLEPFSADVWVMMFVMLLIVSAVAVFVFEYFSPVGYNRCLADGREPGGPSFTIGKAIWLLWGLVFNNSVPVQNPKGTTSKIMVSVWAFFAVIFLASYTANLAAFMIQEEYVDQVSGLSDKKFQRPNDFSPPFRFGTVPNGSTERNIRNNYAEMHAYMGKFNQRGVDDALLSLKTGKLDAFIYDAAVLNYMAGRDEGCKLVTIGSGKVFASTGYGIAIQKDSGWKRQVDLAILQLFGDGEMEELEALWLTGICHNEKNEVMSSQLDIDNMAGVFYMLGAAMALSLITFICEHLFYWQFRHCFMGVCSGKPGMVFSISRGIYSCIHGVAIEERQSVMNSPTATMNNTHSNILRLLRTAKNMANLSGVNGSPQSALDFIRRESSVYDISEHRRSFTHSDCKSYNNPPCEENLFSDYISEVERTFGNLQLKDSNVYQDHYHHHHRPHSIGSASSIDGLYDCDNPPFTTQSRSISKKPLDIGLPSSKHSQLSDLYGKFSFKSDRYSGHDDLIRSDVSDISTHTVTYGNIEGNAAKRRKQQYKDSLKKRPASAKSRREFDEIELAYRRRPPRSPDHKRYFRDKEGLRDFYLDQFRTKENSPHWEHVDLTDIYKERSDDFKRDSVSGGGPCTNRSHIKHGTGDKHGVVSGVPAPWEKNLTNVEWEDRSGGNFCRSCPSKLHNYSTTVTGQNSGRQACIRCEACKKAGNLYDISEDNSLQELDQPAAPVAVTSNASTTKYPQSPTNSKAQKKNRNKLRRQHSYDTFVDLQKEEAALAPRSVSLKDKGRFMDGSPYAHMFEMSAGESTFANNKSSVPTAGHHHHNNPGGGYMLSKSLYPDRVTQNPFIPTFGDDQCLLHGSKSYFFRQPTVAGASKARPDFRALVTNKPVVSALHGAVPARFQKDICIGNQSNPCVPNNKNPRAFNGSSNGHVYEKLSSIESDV

SMILES	IC50 [1]	IC50 [2]
COc1cccc(NC(=O)N2C[C@@H]3C[C@@](O)(c4ccccc4C)C[C@@H]3C2)c1	> 10 µM	≥ 10 µM
OC(CN1C[C@@H]2C[C@@](O)(c3ccccc3)C[C@@H]2C1)c1ccccc1 (mixture of isomers) [Example 58, rac-2-(2-hydroxy-2-phenylethyl)-5-phenyloctahydrocyclo-penta[c]pyrrol-5-ol]	> 10 µM	≥ 10 µM
COc1cccc([C@]2(O)C[C@H]3CN(CC(O)c4ccccc4)C[C@H]3C2)c1 (mixture of isomers) [Example 60, rac-2-(2-hydroxy-2-phenylethyl)-5-(3-methoxyphenyl)-octahydrocyclopenta[c] pyrrol-5-ol]	> 10 µM	≥ 10 µM
COc1cccc([C@]2(O)C[C@H]3CN(CC(O)c4cccc(F)c4)C[C@H]3C2)c1 (mixture of isomers) [Example 63, rac-2-[2-(3-fluorophenyl)-2-hydroxyethyl]-5-(3-methoxyphenyl)-octahydrocyclopenta[c] pyrrol-5-ol]	> 10 µM	≥ 10 µM
OC(CN1C[C@@H]2C[C@@](O)(c3ccccc3)C[C@@H]2C1)c1cccc(F)c1 (mixture of isomers) [Example 64, rac-2-[2-(3-fluorophenyl)-2-hydroxyethyl]-5-phenyl-octahydrocyclopenta[c] pyrrol-5-ol]	> 10 µM	≥ 10 µM
COc1ccc(C(O)CN2C[C@@H]3C[C@@](O)(c4ccccc4)C[C@@H]3C2)cc1 (mixture of isomers) [Example 66, rac-2-[2-hydroxy-2-(4-methoxyphenyl)ethyl]-5-phenyl-octahydrocyclopenta[c] pyrrol-5-ol]	> 10 µM	≥ 10 µM
Oc1ccc(C(O)CN2C[C@@H]3C[C@@](O)(c4ccccc4)C[C@@H]3C2)cc1 (mixture of isomers) [Example 67, rac-2-[2-hydroxy-2-(4-hydroxyphenyl)ethyl]-5-phenyl-octahydrocyclopenta[c] pyrrol-5-ol]	> 10 µM	≥ 10 µM
CC(C)(O)c1ccc(C(O)CN2C[C@@H]3C[C@@](O)(c4ccccc4)C[C@@H]3C2)cc1 (mixture of isomers) [Example 69, rac-2-(2-hydroxy-2-(4-(2-hydroxypropan-2-yl)phenyl)ethyl)-5-phenyloctahydrocyclo-penta[c]pyrrol-5-ol]	> 10 µM	≥ 10 µM
CC(C)(C)c1ccc([C@]2(O)C[C@H]3CN(CC(O)c4cccc(C(F)(F)F)c4)C[C@H]3C2)cc1 (mixture of isomers) [Example 70, rac-5-(4-(tert-butyl)phenyl)-2-(2-hydroxy-2-(3-(trifluoromethyl)phenyl)ethyl)octahydrocyclo-penta[c]pyrrol-5-ol]	> 10 µM	≥ 10 µM
CC(C)(C)c1ccc([C@]2(O)C[C@H]3CN(CC(O)c4cccc(F)c4)C[C@H]3C2)cc1 (mixture of isomers) [Example 71, rac-5-(4-tert-butylphenyl)-2-[2-(3-fluorophenyl)-2-hydroxyethyl]-octahydrocyclopenta[c] pyrrol-5-ol]	> 10 µM	≥ 10 µM
Cc1ccccc1[C@]1(O)C[C@H]2CN(CC(O)c3cccc(C(F)(F)F)c3)C[C@H]2C1 (mixture of isomers) [Example 72, rac-2-{2-hydroxy-2-[3-(trifluoromethyl)phenyl]ethyl}-5-(2-methylphenyl)-octahydrocyclopenta[c] pyrrol-5-ol]	> 10 µM	≥ 10 µM
COc1cccc([C@]2(O)C[C@H]3CN(CC(O)c4cccc(C(F)(F)F)c4)C[C@H]3C2)c1 (mixture of isomers) [Example 73, rac-2-{2-hydroxy-2-[3-(trifluoromethyl)phenyl]ethyl}-5-(3-methoxyphenyl)-octahydrocyclopenta[c] pyrrol-5-ol]	> 10 µM	≥ 10 µM
COc1cccc([C@]2(O)C[C@H]3CN(CC(O)c4ccc(Cl)cc4Cl)C[C@H]3C2)c1 (mixture of isomers) [Example 74, rac-2-[2-(2,4-dichlorophenyl)-2-hydroxyethyl]-5-(3-methoxyphenyl)-octahydrocyclopenta[c] pyrrol-5-ol]	> 10 µM	≥ 10 µM
OC(CN1C[C@@H]2C[C@@](O)(c3ccc(F)cc3)C[C@@H]2C1)c1cccc(C(F)(F)F)c1 (mixture of isomers) [Example 75, rac-5-(4-fluorophenyl)-2-{2-hydroxy-2-[3-(trifluoromethyl)phenyl]ethyl}-octahydrocyclopenta[c] pyrrol-5-ol]	> 10 µM	≥ 10 µM
OC(CN1C[C@@H]2C[C@@](O)(c3ccc(F)cc3)C[C@@H]2C1)c1ccc(Cl)cc1Cl (mixture of isomers) [Example 76, rac-2-[2-(2,4-dichlorophenyl)-2-hydroxyethyl]-5-(4-fluorophenyl)-octahydrocyclopenta[c] pyrrol-5-ol]	> 10 µM	≥ 10 µM
COc1cccc(C(O)CN2C[C@@H]3C[C@@](O)(c4cccc(OC)c4)C[C@@H]3C2)c1 (mixture of isomers) [Example 77, rac-2-[2-hydroxy-2-(3-methoxyphenyl)ethyl]-5-(3-methoxyphenyl)-octahydrocyclopenta[c] pyrrol-5-ol]	> 10 µM	≥ 10 µM
COc1cccc([C@]2(O)C[C@H]3CN(C(C)C(O)c4ccc(O)cc4)C[C@H]3C2)c1 (mixture of isomers) [Example 78, rac-2-(1-hydroxy-1-(4-hydroxyphenyl)propan-2-yl)-5-(3-methoxy-phenyl)octahydro-cyclopenta[c]pyrrol-5-ol]	> 10 µM	≥ 10 µM
CC(C(=O)c1ccc(O)cc1)N1C[C@@H]2C[C@@](O)(c3ccccc3)C[C@@H]2C1 (mixture of isomers) [Example 90, rac-2-(5-hydroxy-5-phenylhexahydrocyclo-penta[c]pyrrol-2(1H)-yl)-1-(4-hydroxyphenyl)propan-1-one]	> 10 µM	≥ 10 µM
CC(C(O)c1ccc(O)cc1)N1C[C@@H]2C[C@@](O)(c3ccccc3)C[C@@H]2C1 (mixture of isomers) [Example 91, rac-2-(1-hydroxy-1-(4-hydroxyphenyl)propan-2-yl)-5-phenyloctahydrocyclo-penta[c]pyrrol-5-ol]	> 10 µM	≥ 10 µM

Results, then the compound that gave them:

IC50 [1]	IC50 [2]	SMILES
> 10 µM	≥ 10 µM	CC(C(=O)c1ccc(O)cc1)N1C[C@@H]2C[C@@](O)(c3ccc(F)cc3)C[C@@H]2C1 (mixture of isomers) [Example 92, rac-2-[5-(4-fluorophenyl)-5-hydroxy-octahydrocyclopenta[c]pyrrol-2-yl]-1-(4-hydroxyphenyl)propan-1-one]
> 10 µM	≥ 10 µM	CC(C(=O)c1ccc(O)cc1)N1C[C@@H]2C[C@@](O)(c3ccc(C(C)(C)C)cc3)C[C@@H]2C1 (mixture of isomers) [Example 93, rac-2-[5-(4-tert-butylphenyl)-5-hydroxy-octahydrocyclopenta[c]pyrrol-2-yl]-1-(4-hydroxyphenyl)propan-1-one]
> 10 µM	≥ 10 µM	Cc1ccccc1[C@]1(O)C[C@H]2CN(C(C)C(=O)c3ccc(O)cc3)C[C@H]2C1 (mixture of isomers) [Example 94, rac-2-[5-hydroxy-5-(2-methylphenyl)-octahydrocyclopenta[c]pyrrol-2-yl]-1-(4-hydroxyphenyl)propan-1-one]
> 10 µM	≥ 10 µM	Cc1ccccc1[C@]1(O)C[C@H]2CN(C(C)C(O)c3ccc(O)cc3)C[C@H]2C1 (mixture of isomers) [Example 95, rac-2-[1-hydroxy-1-(4-hydroxyphenyl)propan-2-yl]-5-(2-methylphenyl)-octahydrocyclopenta[c] pyrrol-5-ol]
	10.5 µM	CC(C(O)c1ccc(O)cc1)N1C[C@@H]2C[C@@](O)(c3ccc(C(C)(C)C)cc3)C[C@@H]2C1 (mixture of isomers) [Example 96, rac-5-(4-tert-butylphenyl)-2-[1-hydroxy-1-(4-hydroxyphenyl)propan-2-yl]-octahydrocyclopenta[c] pyrrol-5-ol]
> 10 µM	≥ 10 µM	OC(CN1C[C@H]2C[C@@H](c3ccccc3)C[C@H]2C1)c1cccc(C(F)(F)F)c1 (mixture of isomers) [Example 116, rac-2-(5-phenylhexahydrocyclo-penta[c]pyrrol-2(1H)-yl)-1-(3-(trifluoromethyl)phenyl) ethanol]
> 10 µM	≥ 10 µM	COc1cccc(C(O)CN2C[C@H]3C[C@@H](c4ccccc4)C[C@H]3C2)c1 (mixture of isomers) [Example 117, rac-1-(3-methoxyphenyl)-2-{5-phenyl-octahydrocyclopenta[c]pyrrol-2-yl}ethan-1-ol]
< 0.1 µM	0.0255 µM	Oc1ccc(C(O)CN2C[C@@H]3C[C@@](O)(Cc4ccccc4)C[C@@H]3C2)cc1 (mixture of isomers) [Example 131, rac-(3aR,5r,6aS)-5-benzyl-2-(2-hydroxy-2-(4-hydroxyphenyl)ethyl)octa-hydrocyclopenta[c]pyrrol-5-ol]
	0.0271 µM	Oc1ccc(C(O)CN2C[C@@H]3C[C@@](O)(Cc4ccc(F)cc4)C[C@@H]3C2)cc1 (mixture of isomers) [Example 135, rac-(3aR,5r,6aS)-5-(4-fluorobenzyl)-2-(2-hydroxy-2-(4-hy-droxyphenyl)ethyl)octa-hydrocyclopenta[c]pyrrol-5-ol]
> 10 µM	≥ 10 µM	CC(C)(O)c1ccc(C(O)CN2C[C@@H]3C[C@@](O)(Cc4ccccc4)C[C@@H]3C2)cc1 (mixture of isomers) [Example 139, rac-(3aR,5r,6aS)-5-benzyl-2-(2-hydroxy-2-(4-(2-hydroxypropan-2-yl)phenyl)ethyl)octahydro-cyclopenta[c]pyrrol-5-ol]
< 0.1 µM	0.0268 µM	Oc1ccc(C(O)CN2C[C@@H]3C[C@@](O)(Cc4ccccc4)C[C@@H]3C2)nc1 (mixture of isomers) [Example 144, rac-(3aR,5r,6aS)-5-benzyl-2-(2-hydroxy-2-(5-hydroxypyridin-2-yl)ethyl)octahydrocyclo-penta[c]pyrrol-5-ol]
	2.31 µM	CC(=O)Nc1ccc(C(O)CN2C[C@@H]3C[C@@](O)(Cc4ccccc4)C[C@@H]3C2)cc1 (mixture of isomers) [Example 149, rac-N-(4-(2-((3aR,5r,6aS)-5-benzyl-5-hydroxyhexahydrocyclo-penta[c]pyrrol-2(1H)-yl)-1-hydroxyethyl)phenyl)acet-amide]
